Read-outs that look alike come from different tables or passages of the source.
Assays:
[1] = system: MCF-7/ADR cells; assay: Toxic effect of each derivative and VER alone (cell survival); type: cell-based; details: Homo sapiens, NCI/ADR-RES, 2 h incubation, read-out: cell survival ratio; for viability at 5 µM: mean (SD); for viability at 10 µM / viability at 25 µM / viability at 50 µM / viability at 100 µM: mean
Procedure: The effect of eight FA derivatives on cytotoxicity was studied in P-gp overexpressed human breast cancer cells (MCF-7/ADR) using the SRB assay. The details of the cell culture condition and the assay method were presented in our previous reports. […] The assay was performed in triplicate. […]
Data are presented as mean ± SD.
The numerical data were represented the cell survival ratio.

[2] = system: MCF-7/ADR cells; assay: [3H]-daunomycin accumulation study; type: cell-based, human; details: 100 µM, 2 h incubation, mean ± SD, triplicate
Procedure: (§1) The methods for [^3H]-DNM accumulation and efflux studies were reported previously. […] The experiments were performed in triplicate.
(§2) [^3H]-DNM uptake and efflux were determined after the incubation with each derivative (100 µM) for 2 h and 1 h, respectively. […] Control represents accumulation or efflux of tritium labeled DNM alone.

[3] = system: MCF-7/ADR cells; assay: Cytotoxicity of DNM with FA derivatives, SRB assay; type: cell-based, human; details: for IC50 of DNM as fraction of negative control (DNM alone) value: derivative 100 µM
Procedure: The effect of eight FA derivatives on cytotoxicity was studied in P-gp overexpressed human breast cancer cells (MCF-7/ADR) using the SRB assay. The details of the cell culture condition and the assay method were presented in our previous reports. […] The assay was performed in triplicate.

[4] = Pharmacokinetic study of oral PTX alone or co-administered with compound 5c; type: in vivo, male Sprague-Dawley rats
Procedure: The pharmacokinetic (PK) study was performed using male Sprague-Dawley rats (6 weeks old and 200 g–235 g) commercially available from Orient Bio (Seongnam, Korea). All animal procedures were approved by the Institutional Animal Care and Use Committee of Ewha Womans University (No. 2012-01-019, approved on 3 April 2012), Republic of Korea.
Rats were divided into the following 4 groups: Oral administration (PO) of PTX (25 mg/kg) alone and co-administration of PTX (25 mg/kg) with compound 5c at three different doses (0.5, 2 and 5 mg/kg). Each group had 5 rats except for a group of 2 mg/kg dose (n = 4). The blood samples (0.2 mL) were collected from the common carotid artery at 0, 0.25, 0.5, 1, 2, 3, 4, 6, 8, 10 and 24 h.
PTX concentrations in rat plasma were analyzed by Agilent HP1100 series system using a Capcell-pak C18 MG120 column (3 mm × 250 mm, 5 µm, Shiseido, Tokyo, Japan). The samples were eluted with mobile phase composed of acetonitrile and 0.1% phosphoric acid (1/1, v/v) at a flow rate of 0.5 mL/min for 30 min and detected at a wavelength of 227 nm. The HPLC-UV method was validated by FDA guidelines as follows: Specificity (PTX: 14.8 min; internal standard: 26.7 min), linearity over the concentration range between 0.01 and 10 µg/mL, lower limit of quantification (0.01 µg/mL) and intra-/inter-day precision and accuracy (2.4–9.1% and 92.1–102.7%, respectively). All other details for sample preparation and quantification of PTX concentrations in rat plasma were reported previously.
The following PK parameters of PTX after oral single dosing to rats were estimated by non-compartmental analysis using WinNonlin® Professional version 5.2 software (Pharsight Corporation, Mountain View, CA, USA): The area under the plasma concentration-time curve from 0 h to infinity (AUCinf), elimination half-life (t1/2), apparent volume of distribution after oral single dosing (Vz/F), oral clearance (Cl/F), maximum plasma concentration (Cmax) and the time required to reach Cmax (Tmax). The relative bioavailability (RB, %) of PTX was calculated with the following formula: RB ( % )=AUCinf po co−administraion/AUCinf po control×100
AUCinf po control is the AUCinf obtained from oral single administration of PTX alone, and AUCinf po co-administration is the AUCinf obtained from oral single co-administration of PTX and compound 5c.

[5] = target: T1, human P-gp membranes (Homo sapiens, UniProt P08183); assay: Human P-glycoprotein ATPase activity assay; type: biochemical; details: for P-gp ATPase activity, ratio of blank (control): human P-gp membranes
T1 construct: purchased
Procedure: The ATPase activities were expressed as the rate of phosphate release per milligram of membrane protein and converted to the relative ratio versus the control. This assay was performed in duplicate.

[6] = system: MCF-7/ADR cells; assay: [3H]-daunomycin efflux study; type: cell-based, human
Procedure: as §1, §2

[7] = design: method as in PMID 24373826; details: humans; cited from earlier work
[8] = design: method as in PMID 24373826; details: rats; cited from earlier work
[9] = 100 µM, 1 h incubation, mean ± SD, triplicate

T1 sequence (P08183 whole entry): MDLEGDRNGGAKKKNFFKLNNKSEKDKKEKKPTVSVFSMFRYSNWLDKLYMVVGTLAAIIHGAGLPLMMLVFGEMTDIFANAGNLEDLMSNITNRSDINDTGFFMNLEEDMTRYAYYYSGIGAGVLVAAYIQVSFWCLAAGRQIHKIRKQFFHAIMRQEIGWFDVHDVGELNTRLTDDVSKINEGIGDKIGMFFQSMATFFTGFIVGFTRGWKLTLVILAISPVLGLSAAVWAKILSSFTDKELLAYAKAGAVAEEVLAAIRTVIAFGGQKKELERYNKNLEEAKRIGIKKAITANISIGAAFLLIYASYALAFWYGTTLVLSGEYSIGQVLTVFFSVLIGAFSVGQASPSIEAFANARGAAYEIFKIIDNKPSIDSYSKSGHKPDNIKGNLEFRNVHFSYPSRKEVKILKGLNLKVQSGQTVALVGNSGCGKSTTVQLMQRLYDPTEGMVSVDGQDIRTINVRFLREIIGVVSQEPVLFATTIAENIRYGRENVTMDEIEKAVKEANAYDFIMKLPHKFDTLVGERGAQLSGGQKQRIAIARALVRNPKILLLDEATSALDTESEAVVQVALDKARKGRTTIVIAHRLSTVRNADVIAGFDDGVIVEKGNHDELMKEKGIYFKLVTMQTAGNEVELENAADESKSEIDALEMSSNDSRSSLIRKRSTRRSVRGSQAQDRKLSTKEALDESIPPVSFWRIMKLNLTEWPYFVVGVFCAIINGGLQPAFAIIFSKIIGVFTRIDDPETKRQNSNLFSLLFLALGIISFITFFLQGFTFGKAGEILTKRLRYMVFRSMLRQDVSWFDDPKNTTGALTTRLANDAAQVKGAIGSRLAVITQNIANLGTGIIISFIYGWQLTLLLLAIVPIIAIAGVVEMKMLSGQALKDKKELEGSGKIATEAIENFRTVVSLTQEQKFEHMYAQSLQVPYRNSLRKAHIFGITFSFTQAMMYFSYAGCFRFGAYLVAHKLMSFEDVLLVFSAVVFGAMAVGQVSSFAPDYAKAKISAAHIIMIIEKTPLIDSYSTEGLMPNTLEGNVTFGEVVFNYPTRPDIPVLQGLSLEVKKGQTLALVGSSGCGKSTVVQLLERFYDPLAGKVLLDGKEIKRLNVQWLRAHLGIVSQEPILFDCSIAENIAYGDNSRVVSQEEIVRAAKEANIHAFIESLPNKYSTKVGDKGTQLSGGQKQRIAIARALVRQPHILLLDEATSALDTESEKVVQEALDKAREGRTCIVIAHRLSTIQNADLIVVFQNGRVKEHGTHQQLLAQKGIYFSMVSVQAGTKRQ

SMILES	melting point	P-gp ATPase activity, ratio of blank (control) ([5]; 20 μM)	P-gp ATPase activity, ratio of blank (control) ([5]; 50 μM)	P-gp ATPase activity, ratio of blank (control) ([5]; 100 μM)	viability at 5 µM [1]	viability at 10 µM [1]	viability at 25 µM [1]	viability at 50 µM [1]	viability at 100 µM [1]	IC50 of DNM as fraction of negative control (DNM alone) value [3]	also measured
CCCOc1ccc(/C=C/C(=O)N2CCCCC2)cc1OC [Compound 5a, (E)-3-(3-methoxy-4-propoxyphenyl)-1-(piperidin-1-yl)prop-2-en-1-one]	91 to 92 °C				96.5%	94.1%	96%	93.8%	87.8%		
COc1cc(/C=C/C(=O)N2CCCCC2)ccc1OCC(C)C [Compound 5b, (E)-3-(4-isobutoxy-3-methoxyphenyl)-1-(piperidin-1-yl)prop-2-en-1-one]	96 to 97 °C				101%	97.8%	96.1%	96.1%	92%		
COc1cc(/C=C/C(=O)N2CCCCC2)ccc1OCc1ccccc1 [Compound 5c, (E)-3-(4-benzyloxy-3-methoxyphenyl)-1-(piperidin-1-yl)prop-2-en-1-one]		1.54	2.48	4.02	101%	98.5%	96.1%	96.9%	87.6%	about 1/5	accumulation of [3H]-DNM [2]: 438.4 ± 4.9%; Cl/F of PTX ([4]; PTX 25 mg/kg PO co-administered with compound 5c 2 mg/kg, rats): 4.10 ± 1.53 L/h; Cl/F of PTX ([4]; PTX 25 mg/kg PO co-administered with compound 5c 5 mg/kg, rats): 4.53 ± 1.04 L/h; Effect on PK parameters of PTX ([4]; compound 5c 0.5 mg/kg co-administered, compared to PO control (PTX alone)): did not alter any PK parameters of PTX; Improvement of the BA of PTX ([4]; compound 5c 5 mg/kg co-administered with PTX in rats): approximately twofold; Concentration dependence of P-gp ATPase activity ([5]; 20, 50 and 100 μM): stably increased ATPase activity in a concentration-dependent manner; efflux of [3H]-DNM [6, 9]: 43.1 ± 4.6%
CCCOc1ccc(/C=C/C(=O)N(C)C)cc1OC [Compound 5d, (E)-3-(3-methoxy-4-propoxyphenyl)-N,N-dimethylacrylamide]	108 to 109 °C				102%	97.8%	97.1%	97.1%	96.2%		
COc1cc(/C=C/C(=O)N(C)C)ccc1OCC(C)C [Compound 5e, (E)-3-(4-isobutoxy-3-methoxyphenyl)-N,N-dimethylacrylamide]	109 to 111 °C				100%	99.4%	95.8%	95%	94.8%		accumulation of [3H]-DNM [2]: 382.1 ± 20.4%; efflux of [3H]-DNM [6, 9]: 39.9 ± 3.8%
COc1cccc2c1C(=O)c1c(O)c3c(c(O)c1C2=O)C[C@@](O)(C(C)=O)C[C@@H]3O[C@H]1C[C@H](N)[C@H](O)[C@H](C)O1 [DNM, daunomycin, reference compound]											IC50 ([3]; Homo sapiens, NCI/ADR-RES, negative control: DNM alone, incubation): 31.7 µM; efflux of [3H]-DNM ([6]; control: tritium labeled DNM alone, 1 h): 63.0 ± 3.3%
COc1cc(/C=C/C(=O)O)ccc1O [FA, Ferulic acid]											Time within which FA is absorbed in the intestine [7]: ≤ 30 min; Time within which FA is absorbed in the intestine [8]: 5 to 15 min
CC(=O)O[C@H]1C(=O)[C@@]2(C)[C@H]([C@H](OC(=O)c3ccccc3)[C@]3(O)C[C@H](OC(=O)[C@H](O)[C@@H](NC(=O)c4ccccc4)c4ccccc4)C(C)=C1C3(C)C)[C@]1(OC(C)=O)CO[C@@H]1C[C@@H]2O [PTX, Paclitaxel]											Cl/F of PTX ([4]; PTX 25 mg/kg PO alone, rats): 8.22 ± 1.84 L/h; Cmax of PTX ([4]; PTX 25 mg/kg PO alone, rats): 187 ± 41 ng/mL; AUC(0-inf) ([4]; male, Sprague-Dawley, rat, plasma, PTX 25 mg/kg PO alone, rats, read-out: AUCinf of PTX): 773 ± 169 ng·h/mL; Vd/F ([4]; male, Sprague-Dawley, rat, plasma, PTX 25 mg/kg PO alone, rats, read-out: Vz/F of PTX): 35.1 ± 16.8 L; half-life ([4]; male, Sprague-Dawley, rat, plasma, PTX 25 mg/kg PO alone, rats, read-out: t1/2 of PTX (converted)): 2.8 ± 0.86 h

Now from value to compound, other results behind:

melting point	P-gp ATPase activity, ratio of blank (control) ([5]; 20 μM)	P-gp ATPase activity, ratio of blank (control) ([5]; 50 μM)	P-gp ATPase activity, ratio of blank (control) ([5]; 100 μM)	SMILES	viability at 5 µM [1]	viability at 10 µM [1]	viability at 25 µM [1]	viability at 50 µM [1]	viability at 100 µM [1]	IC50 of DNM as fraction of negative control (DNM alone) value [3]	also measured
	2.85	3.12	3.35	CCCOc1ccc(/C=C/C(=O)N(C)Cc2ccccc2)cc1OC [Compound 5f, (E)-N-benzyl-3-(3-methoxy-4-propoxyphenyl)-N-methylacrylamide]	98.9%	99.4%	100%	96.9%	92.8%	about 1/5	
135 to 136 °C	1.26	1.77	5.19	COc1cc(/C=C/C(=O)N(C)C)ccc1OCc1ccccc1 [Compound 5g, (E)-3-(4-benzyloxy-3-methoxyphenyl)-N,N-dimethylacrylamide]	104%	102%	100%	99.3%	102%	about 1/5	
163 to 164 °C	3.99	2.69	2.79	CCCOc1ccc(/C=C/C(=O)N2CCC(O)(c3ccccc3)CC2)cc1OC [Compound 5h, (E)-1-(4-hydroxy-4-phenylpiperidin-1-yl)-3-(3-methoxy-4-propoxyphenyl) prop-2-en-1-one]	103%	99.2%	94.6%	89.4%	89.6%	about 1/5	accumulation of [3H]-DNM [2]: 426.1 ± 26.2%; efflux of [3H]-DNM [6, 9]: 43.3 ± 0.9%

Reference: PMC6920777, “Pharmacokinetic Alteration of Paclitaxel by Ferulic Acid Derivative” (Pharmaceutics, 2019)
